Blank lines part the entries; values can stand above or below the compound they belong to.
Key:
[1] = Inhibitory activity towards group 2 metabotropic glutamate receptor by displacement of ACPD-sensitive [3H]- glutamate in rat forebrain membrane; type: cell membranes
[2] = target: Glutamate receptor ionotropic, AMPA (Rattus norvegicus, UniProt P19490+P19491+P19492+P19493); assay: Binding affinity against Ionotropic glutamate receptor using [3H]-AMPA displacement from rat forebrain preparations
[3] = target: Glutamate receptor ionotropic, kainate; assay: Binding affinity against Ionotropic glutamate receptor using [3H]-Kainate displacement from rat forebrain preparations
[4] = target: Glutamate receptor ionotropic, kainate 3 (Rattus norvegicus, UniProt P42264); assay: Binding affinity against Ionotropic glutamate receptor using ACPD sensitive [3H]- glutamate displacement from rat forebrain preparations
Glutamate receptor ionotropic, kainate 3, sequence (P42264 whole entry): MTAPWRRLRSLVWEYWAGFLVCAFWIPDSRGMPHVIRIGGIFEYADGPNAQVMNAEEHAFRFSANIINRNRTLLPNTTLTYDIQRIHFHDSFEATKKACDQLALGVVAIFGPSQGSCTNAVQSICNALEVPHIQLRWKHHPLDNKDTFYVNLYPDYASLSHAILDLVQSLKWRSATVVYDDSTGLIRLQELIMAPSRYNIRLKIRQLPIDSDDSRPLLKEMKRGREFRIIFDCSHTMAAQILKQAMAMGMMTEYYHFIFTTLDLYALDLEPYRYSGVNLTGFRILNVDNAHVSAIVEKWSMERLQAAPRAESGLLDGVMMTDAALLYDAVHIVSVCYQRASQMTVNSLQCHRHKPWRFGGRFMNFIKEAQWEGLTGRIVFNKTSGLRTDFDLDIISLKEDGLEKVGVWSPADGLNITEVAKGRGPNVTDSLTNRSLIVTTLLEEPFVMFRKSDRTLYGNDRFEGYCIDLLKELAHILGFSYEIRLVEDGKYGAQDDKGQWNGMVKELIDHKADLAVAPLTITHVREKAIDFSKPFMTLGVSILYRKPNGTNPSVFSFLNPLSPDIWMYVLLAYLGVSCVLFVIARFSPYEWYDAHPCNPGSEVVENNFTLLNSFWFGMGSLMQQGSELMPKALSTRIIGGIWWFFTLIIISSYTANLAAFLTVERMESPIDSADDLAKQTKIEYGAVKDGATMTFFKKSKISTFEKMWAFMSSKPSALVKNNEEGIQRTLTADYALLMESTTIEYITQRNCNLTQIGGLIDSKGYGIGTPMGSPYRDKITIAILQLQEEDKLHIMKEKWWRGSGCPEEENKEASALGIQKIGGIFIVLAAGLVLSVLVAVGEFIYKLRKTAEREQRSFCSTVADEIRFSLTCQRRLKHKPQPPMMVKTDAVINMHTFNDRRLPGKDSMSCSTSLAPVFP

[5] = target: Metabotropic glutamate receptor 1 (Homo sapiens, UniProt Q13255); assay: Tested for […] in non-neuronal cells (RGT) expressing human Metabotropic glutamate receptor 1 by measuring ACPD (100 uM)-stimulated phosphoinositide hydrolysis; type: functional, cell-based
[6] = target: Metabotropic glutamate receptor 8 (Homo sapiens, UniProt O00222); assay: Tested for […] in non-neuronal cells (RGT) expressing human Metabotropic glutamate receptor 8 by measuring L-AP4 (0.3 uM of forskolin) (15 uM)-stimulated cAMP formation; type: functional, cell-based
Metabotropic glutamate receptor 8, sequence (O00222 whole entry): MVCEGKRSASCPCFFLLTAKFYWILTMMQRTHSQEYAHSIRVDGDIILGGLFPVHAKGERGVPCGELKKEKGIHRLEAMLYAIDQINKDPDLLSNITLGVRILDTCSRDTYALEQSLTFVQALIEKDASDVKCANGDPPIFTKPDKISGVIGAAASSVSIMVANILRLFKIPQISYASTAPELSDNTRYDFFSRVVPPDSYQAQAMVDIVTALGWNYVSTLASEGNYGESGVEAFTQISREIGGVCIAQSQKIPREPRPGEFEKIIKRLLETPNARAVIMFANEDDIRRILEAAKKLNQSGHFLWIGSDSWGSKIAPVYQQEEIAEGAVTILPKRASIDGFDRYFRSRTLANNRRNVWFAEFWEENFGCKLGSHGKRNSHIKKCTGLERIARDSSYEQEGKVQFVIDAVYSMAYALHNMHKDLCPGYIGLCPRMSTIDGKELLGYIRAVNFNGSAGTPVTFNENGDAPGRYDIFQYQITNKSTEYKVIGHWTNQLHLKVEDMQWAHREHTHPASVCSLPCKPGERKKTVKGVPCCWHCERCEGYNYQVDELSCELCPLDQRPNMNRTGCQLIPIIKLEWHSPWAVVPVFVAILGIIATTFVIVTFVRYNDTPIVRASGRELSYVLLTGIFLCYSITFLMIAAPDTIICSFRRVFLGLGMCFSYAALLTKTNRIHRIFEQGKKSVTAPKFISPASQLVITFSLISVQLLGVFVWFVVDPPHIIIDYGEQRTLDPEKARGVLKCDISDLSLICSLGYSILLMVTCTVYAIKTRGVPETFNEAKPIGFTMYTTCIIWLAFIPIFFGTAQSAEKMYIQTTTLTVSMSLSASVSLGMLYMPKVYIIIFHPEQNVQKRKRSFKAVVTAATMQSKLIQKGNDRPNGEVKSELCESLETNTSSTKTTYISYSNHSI

[7] = target: Metabotropic glutamate receptor 5 (Homo sapiens, UniProt P41594); assay: Tested for […] in non-neuronal cells (RGT) expressing human Metabotropic glutamate receptor 5 by measuring ACPD (100 uM)-stimulated phosphoinositide hydrolysis; type: functional, cell-based
Metabotropic glutamate receptor 5, sequence (P41594 whole entry): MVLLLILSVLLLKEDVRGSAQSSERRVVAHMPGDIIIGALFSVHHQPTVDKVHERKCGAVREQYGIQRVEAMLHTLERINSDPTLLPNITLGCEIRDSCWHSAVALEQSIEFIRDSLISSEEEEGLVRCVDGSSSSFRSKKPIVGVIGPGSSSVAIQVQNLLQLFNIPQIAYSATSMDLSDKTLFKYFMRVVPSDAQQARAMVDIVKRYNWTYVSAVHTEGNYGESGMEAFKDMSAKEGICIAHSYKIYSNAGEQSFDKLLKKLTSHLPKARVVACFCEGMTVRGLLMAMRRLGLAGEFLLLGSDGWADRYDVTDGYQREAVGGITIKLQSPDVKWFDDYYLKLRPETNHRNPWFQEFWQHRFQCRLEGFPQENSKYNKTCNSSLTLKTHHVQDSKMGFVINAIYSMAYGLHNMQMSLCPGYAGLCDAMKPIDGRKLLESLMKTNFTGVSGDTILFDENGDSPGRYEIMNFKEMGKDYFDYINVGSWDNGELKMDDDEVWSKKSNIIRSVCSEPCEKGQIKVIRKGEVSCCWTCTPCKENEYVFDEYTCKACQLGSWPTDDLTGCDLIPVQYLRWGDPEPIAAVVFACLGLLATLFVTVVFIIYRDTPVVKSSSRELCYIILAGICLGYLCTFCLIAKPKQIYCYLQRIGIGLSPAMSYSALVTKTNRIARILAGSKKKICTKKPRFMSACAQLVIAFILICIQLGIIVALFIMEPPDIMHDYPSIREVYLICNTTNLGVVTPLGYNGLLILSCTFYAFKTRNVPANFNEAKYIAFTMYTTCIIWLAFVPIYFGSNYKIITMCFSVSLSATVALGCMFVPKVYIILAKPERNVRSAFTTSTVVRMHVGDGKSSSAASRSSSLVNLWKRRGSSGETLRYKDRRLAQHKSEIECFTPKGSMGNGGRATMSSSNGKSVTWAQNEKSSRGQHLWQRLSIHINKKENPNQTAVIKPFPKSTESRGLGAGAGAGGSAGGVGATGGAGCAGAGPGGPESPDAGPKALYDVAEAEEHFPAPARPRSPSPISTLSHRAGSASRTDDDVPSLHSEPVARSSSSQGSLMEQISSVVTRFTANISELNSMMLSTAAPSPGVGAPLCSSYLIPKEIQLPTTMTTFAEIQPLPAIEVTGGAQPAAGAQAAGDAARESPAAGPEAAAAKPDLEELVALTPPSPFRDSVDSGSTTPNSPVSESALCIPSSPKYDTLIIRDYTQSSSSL

[8] = target: Metabotropic glutamate receptor 4 (Homo sapiens, UniProt Q14833); assay: Tested for […] in non-neuronal cells (RGT) expressing human Metabotropic glutamate receptor 4 by measuring L-AP4 (3 uM) induced inhibition of forskolin (15 uM)-stimulated cAMP formation; type: functional, cell-based
Metabotropic glutamate receptor 4, sequence (Q14833 whole entry): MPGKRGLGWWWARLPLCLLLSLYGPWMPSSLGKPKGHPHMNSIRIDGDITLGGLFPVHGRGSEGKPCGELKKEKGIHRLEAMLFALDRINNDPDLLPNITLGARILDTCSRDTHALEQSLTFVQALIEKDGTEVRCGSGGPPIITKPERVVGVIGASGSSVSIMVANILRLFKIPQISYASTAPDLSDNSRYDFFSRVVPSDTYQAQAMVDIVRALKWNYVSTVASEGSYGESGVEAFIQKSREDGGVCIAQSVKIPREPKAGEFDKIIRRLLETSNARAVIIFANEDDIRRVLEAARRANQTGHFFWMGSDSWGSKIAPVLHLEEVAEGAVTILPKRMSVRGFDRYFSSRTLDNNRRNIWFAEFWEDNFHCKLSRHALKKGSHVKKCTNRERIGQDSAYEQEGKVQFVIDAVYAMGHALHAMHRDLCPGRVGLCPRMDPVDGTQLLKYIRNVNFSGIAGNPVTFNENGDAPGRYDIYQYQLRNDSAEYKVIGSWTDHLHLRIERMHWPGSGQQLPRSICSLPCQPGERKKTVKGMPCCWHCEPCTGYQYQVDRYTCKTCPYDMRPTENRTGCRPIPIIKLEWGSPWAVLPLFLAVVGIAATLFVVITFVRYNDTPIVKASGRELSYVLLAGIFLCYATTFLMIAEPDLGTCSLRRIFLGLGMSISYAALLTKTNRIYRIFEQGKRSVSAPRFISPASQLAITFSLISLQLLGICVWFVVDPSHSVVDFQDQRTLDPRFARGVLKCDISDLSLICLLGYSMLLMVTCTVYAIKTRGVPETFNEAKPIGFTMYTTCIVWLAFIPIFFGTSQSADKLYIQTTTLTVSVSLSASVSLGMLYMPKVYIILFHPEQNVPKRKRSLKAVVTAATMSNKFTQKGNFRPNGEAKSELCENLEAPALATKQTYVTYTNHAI

[9] = target: Metabotropic glutamate receptor 3 (Homo sapiens, UniProt Q14832); assay: Tested for […] in non-neuronal cells (RGT) expressing human Metabotropic glutamate receptor 3 by measuring ACPD (3 uM) induced inhibition of forskolin (15 uM)-stimulated cAMP formation; type: functional, cell-based
[10] = target: Metabotropic glutamate receptor 2 (Homo sapiens, UniProt Q14416); assay: Tested for […] in non-neuronal cells (RGT) expressing human Metabotropic glutamate receptor 2 by measuring ACPD (3 uM) induced inhibition of forskolin (15 uM)-stimulated cAMP formation; type: functional, cell-based
[11] = target: Metabotropic glutamate receptor 7 (Homo sapiens, UniProt Q14831); assay: Tested for […] in non-neuronal cells (RGT) expressing human mGlu7a receptor by measuring L-AP4 (1000 uM of forskolin (15 uM)-stimulated cAMP formation; type: functional, cell-based
Metabotropic glutamate receptor 7, sequence (Q14831 whole entry): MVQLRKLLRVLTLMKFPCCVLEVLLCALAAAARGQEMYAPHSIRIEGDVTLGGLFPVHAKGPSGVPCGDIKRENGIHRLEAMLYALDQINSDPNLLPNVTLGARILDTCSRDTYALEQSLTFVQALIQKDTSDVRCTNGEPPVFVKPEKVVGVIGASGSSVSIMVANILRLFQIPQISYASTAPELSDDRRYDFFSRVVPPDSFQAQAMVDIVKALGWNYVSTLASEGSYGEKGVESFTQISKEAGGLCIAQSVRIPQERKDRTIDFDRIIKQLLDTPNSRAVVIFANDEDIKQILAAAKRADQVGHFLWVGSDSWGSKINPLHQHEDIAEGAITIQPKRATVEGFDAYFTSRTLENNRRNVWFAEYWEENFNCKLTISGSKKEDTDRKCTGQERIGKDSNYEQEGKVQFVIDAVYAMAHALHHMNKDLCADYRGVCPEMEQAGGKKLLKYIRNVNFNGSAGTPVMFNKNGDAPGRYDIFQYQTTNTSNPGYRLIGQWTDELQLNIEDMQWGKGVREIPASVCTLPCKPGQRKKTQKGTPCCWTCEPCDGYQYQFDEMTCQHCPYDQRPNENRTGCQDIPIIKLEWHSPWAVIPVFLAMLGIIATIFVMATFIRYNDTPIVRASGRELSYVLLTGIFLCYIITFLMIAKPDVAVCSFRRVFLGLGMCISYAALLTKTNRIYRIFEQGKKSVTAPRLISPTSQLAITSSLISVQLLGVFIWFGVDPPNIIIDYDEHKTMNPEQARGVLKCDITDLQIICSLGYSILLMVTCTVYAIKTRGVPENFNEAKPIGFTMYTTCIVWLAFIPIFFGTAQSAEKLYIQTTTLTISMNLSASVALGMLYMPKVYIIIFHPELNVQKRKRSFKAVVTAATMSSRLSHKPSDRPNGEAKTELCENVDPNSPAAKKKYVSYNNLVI

SMILES: N[C@@H](C[C@@H](CCCCc1ccccc1)C(=O)O)C(=O)O
IC50 [1]: > 100 µM

SMILES: N[C@@H](C[C@@H](CCc1ccccc1)C(=O)O)C(=O)O (single isomer, unassigned)
IC50 [1]: 14.5 µM

SMILES: N[C@@H](C[C@H](CCC(c1ccccc1)c1ccccc1)C(=O)O)C(=O)O
IC50 [2]: 14.5 µM
IC50 [3]: 39.3 µM
IC50 [4]: 1.16 µM

SMILES: COc1cccc(C[C@@H](C[C@H](N)C(=O)O)C(=O)O)c1
IC50 [1]: 9.28 µM

SMILES: N[C@@H](C[C@H](CC(c1ccccc1)c1ccccc1)C(=O)O)C(=O)O
IC50 [2]: > 100 µM
IC50 [3]: > 100 µM
IC50 [4]: 0.38 µM
IC50 [5]: > 300 µM
IC50 [6]: > 300 µM
IC50 [7]: > 300 µM
IC50 [8]: > 300 µM
IC50 [9]: 6.1 µM
IC50 [10]: 18 µM
IC50 [11]: > 300 µM

SMILES: N[C@@H](C[C@H](Cc1ccccc1)C(=O)O)C(=O)O
IC50 [1]: 8.99 µM

SMILES: N[C@@H](C[C@H](CCCC(c1ccccc1)c1ccccc1)C(=O)O)C(=O)O
IC50 [2]: > 100 µM
IC50 [5]: > 300 µM
IC50 [6]: > 300 µM
IC50 [7]: > 300 µM
IC50 [8]: > 300 µM
IC50 [9]: 30 µM
IC50 [10]: 50 µM
IC50 [11]: > 300 µM

SMILES: N[C@@H](C[C@@H](CCCc1ccccc1)C(=O)O)C(=O)O
IC50 [1]: 21.1 µM

SMILES: N[C@@H](C[C@@H](Cc1ccc(C(F)(F)F)cc1)C(=O)O)C(=O)O (single isomer, unassigned)
IC50 [1]: > 100 µM

Results, then the compound that gave them:

IC50 [1]: 4.69 µM
SMILES: N[C@@H](C[C@H](CCCCc1ccccc1)C(=O)O)C(=O)O

IC50 [1]: 1.4 µM
SMILES: N[C@@H](C[C@H](CC1CCC(c2ccccc2)(c2ccccc2)CC1)C(=O)O)C(=O)O

IC50 [1]: 4.6 µM
SMILES: Cc1ccc(C[C@@H](C[C@H](N)C(=O)O)C(=O)O)cc1

IC50 [1]: 3.33 µM
SMILES: N[C@@H](C[C@H](Cc1ccc2ccccc2c1)C(=O)O)C(=O)O

IC50 [1]: 3.4 µM
SMILES: N[C@@H](C[C@H](CCCCC(c1ccccc1)c1ccccc1)C(=O)O)C(=O)O

IC50 [2]: 34 µM
IC50 [3]: 9.2 µM
IC50 [4]: 1.84 µM
IC50 [1]: 1.84 µM
SMILES: N[C@@H](C[C@H](CCCc1ccccc1)C(=O)O)C(=O)O

IC50 [1]: 4.65 µM
SMILES: N[C@@H](C[C@H](CCc1ccccc1)C(=O)O)C(=O)O

IC50 [1]: 7.85 µM
SMILES: Cc1ccc(C[C@H](C[C@H](N)C(=O)O)C(=O)O)cc1 (single isomer, unassigned)

IC50 [1]: 3.2 µM
SMILES: N[C@@H](C[C@H](CC1CCC(c2ccccc2)CC1)C(=O)O)C(=O)O (some centres not stated)

IC50 [1]: 2.49 µM
SMILES: N[C@@H](C[C@H](CCCCCc1ccccc1)C(=O)O)C(=O)O

IC50 [1]: 8.82 µM
SMILES: N[C@@H](C[C@@H](Cc1ccc2ccccc2c1)C(=O)O)C(=O)O (single isomer, unassigned)

IC50 [1]: 3.16 µM
SMILES: N[C@@H](C[C@H](Cc1ccc(C(F)(F)F)cc1)C(=O)O)C(=O)O
